Assay results published in patent US20260062387A1, “SALT-INDUCIBLE KINASE INHIBITOR COMPOUND AND PHARMACEUTICAL COMPOSITION INCLUDING THE SAME” (MITSUBISHI TANABE PHARMA CORPORATION, priority 2023, published 2026).
pIC50: −log10 of the molar value.

Legend:
Assay type in all cases: biochemical
[1] = target: GST-tagged SIK1 (Homo sapiens (Human), UniProt P57059); assay: SIK1 inhibition test (ADP-Glo Max Assay); conditions: enzyme 20 nM, AMARA Peptide 200 μM, ATP 1 mM, 2 hours room temperature
How it was run: (§1)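 ADP formed was detected by luciferase luminescence after a 2 h room-temperature reaction with 1 mM ATP, 5 mM MgCl2 and AMARA peptide at 200 μM (SIK1, SIK2) or 100 μM (SIK3). Final GST-enzyme levels were 20 nM SIK1, 3 nM SIK2 and 100 nM SIK3. IC50 came from 16-point concentration-response data.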

[2] = target: GST-tagged SIK3 (Homo sapiens (Human), UniProt Q9Y2K2); assay: SIK3 inhibition test (ADP-Glo Max Assay); conditions: enzyme 100 nM, AMARA Peptide 100 μM, ATP 1 mM, 2 hours room temperature
Chain of GST-tagged SIK3 (Q9Y2K2 whole entry): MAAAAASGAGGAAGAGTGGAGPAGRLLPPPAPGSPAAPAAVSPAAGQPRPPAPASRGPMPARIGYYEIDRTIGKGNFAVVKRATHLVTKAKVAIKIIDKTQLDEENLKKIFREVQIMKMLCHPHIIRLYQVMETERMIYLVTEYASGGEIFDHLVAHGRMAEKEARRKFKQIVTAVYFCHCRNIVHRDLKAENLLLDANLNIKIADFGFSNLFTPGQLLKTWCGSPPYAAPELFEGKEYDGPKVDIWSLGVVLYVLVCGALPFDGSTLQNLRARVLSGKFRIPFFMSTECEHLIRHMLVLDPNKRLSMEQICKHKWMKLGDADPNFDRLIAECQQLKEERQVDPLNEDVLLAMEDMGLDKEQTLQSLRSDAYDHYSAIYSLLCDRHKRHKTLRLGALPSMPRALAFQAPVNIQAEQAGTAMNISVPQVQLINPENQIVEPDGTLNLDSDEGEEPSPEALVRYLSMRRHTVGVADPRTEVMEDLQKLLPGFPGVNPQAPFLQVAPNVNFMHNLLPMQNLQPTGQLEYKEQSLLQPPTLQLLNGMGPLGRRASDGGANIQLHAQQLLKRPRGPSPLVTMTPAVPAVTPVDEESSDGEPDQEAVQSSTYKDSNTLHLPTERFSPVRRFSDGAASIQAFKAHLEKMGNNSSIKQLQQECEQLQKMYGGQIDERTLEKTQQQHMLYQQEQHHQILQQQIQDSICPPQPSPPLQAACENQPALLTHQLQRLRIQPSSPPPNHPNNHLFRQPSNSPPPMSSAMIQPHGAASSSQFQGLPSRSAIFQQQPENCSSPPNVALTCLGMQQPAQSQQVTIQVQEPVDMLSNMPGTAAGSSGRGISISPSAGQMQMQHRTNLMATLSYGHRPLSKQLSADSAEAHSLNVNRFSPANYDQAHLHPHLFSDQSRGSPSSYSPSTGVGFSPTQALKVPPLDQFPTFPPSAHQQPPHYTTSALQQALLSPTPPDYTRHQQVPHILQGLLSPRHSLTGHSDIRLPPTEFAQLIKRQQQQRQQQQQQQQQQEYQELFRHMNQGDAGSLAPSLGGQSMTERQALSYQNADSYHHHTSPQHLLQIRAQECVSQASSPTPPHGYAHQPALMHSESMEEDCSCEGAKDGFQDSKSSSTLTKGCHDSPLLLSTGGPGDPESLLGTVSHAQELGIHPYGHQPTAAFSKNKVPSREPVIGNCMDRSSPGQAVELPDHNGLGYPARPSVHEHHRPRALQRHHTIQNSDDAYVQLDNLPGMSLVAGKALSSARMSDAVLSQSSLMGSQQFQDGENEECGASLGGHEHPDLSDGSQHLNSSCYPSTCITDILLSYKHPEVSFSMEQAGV
How it was run: as §1

[3] = target: GST-tagged SIK2 (Homo sapiens (Human), UniProt Q9H0K1); assay: SIK2 inhibition test (ADP-Glo Max Assay); conditions: enzyme 3 nM, AMARA Peptide 200 μM, ATP 1 mM, 2 hours room temperature
Chain of GST-tagged SIK2 (Q9H0K1 whole entry): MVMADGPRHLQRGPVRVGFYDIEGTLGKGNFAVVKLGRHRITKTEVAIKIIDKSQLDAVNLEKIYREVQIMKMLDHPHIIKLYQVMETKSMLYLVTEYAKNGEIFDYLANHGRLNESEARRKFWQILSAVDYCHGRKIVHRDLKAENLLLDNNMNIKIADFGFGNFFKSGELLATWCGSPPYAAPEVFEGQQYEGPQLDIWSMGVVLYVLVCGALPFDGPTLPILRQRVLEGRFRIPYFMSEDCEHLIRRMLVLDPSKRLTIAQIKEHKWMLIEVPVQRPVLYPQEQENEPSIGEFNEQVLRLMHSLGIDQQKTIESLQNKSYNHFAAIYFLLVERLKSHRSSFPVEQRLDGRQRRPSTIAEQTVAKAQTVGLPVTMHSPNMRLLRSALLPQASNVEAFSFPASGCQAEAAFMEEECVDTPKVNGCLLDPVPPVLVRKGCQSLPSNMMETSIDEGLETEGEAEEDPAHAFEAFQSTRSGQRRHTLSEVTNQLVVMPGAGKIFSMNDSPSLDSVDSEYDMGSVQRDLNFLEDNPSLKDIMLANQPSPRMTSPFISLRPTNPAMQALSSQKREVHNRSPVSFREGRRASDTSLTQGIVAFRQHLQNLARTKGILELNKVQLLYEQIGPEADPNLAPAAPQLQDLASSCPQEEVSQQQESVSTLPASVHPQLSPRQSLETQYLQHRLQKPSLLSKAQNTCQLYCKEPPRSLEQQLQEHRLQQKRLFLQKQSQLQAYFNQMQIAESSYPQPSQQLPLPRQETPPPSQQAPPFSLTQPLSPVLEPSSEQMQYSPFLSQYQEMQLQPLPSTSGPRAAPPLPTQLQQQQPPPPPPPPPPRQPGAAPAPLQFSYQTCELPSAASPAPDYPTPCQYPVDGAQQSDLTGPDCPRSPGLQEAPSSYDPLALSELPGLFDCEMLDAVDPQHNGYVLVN
How it was run: as §1

Chain of GST-tagged SIK1 (P57059 whole entry): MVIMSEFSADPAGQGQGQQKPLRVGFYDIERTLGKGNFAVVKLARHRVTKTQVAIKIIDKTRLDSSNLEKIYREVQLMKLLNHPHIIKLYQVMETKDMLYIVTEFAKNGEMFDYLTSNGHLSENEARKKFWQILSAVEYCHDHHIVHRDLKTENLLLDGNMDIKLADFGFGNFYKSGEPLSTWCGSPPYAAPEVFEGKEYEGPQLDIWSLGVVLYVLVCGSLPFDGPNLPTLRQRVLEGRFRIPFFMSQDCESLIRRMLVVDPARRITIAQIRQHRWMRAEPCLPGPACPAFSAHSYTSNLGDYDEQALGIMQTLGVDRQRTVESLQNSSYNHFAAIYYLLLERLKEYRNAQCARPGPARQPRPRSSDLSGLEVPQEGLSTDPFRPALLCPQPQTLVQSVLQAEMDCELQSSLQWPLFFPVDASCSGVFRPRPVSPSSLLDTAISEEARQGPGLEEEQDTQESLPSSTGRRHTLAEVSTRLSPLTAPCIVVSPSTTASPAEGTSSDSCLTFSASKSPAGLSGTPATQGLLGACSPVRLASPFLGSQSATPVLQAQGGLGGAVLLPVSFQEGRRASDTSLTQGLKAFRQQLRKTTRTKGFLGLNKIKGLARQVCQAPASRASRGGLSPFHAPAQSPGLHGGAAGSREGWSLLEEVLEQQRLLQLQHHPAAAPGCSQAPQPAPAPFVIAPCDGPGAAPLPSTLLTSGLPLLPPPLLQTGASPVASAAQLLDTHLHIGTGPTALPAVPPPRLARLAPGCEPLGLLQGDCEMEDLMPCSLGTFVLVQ

pIC50 [1]	pIC50 [2]	pIC50 [3]	Compound
8.02	8.96	8.32	COc1cc(-c2c3c(C(F)F)cc(-c4cnn(C[C@H]5C[C@@H](O)C5)c4)cc3nn2C)cc(OC(F)F)c1C(=O)N[C@@H]1CC1(F)F [Example 121, N-[(1R)-2,2-difluorocyclopropyl]-2-(difluoromethoxy)-4-[4-(difluoromethyl)-6-[1-[(cis-3-hydroxycyclobutyl)methyl]pyrazol-4-yl]-2-methylindazol-3-yl]-6-methoxybenzamide]
7.80	8.36	8.10	COc1cc(-c2c3c(C#N)cc(-c4cnn(CCC5(O)CCC5)c4)cc3nn2C)cc(OC(F)F)c1C(=O)NCC1(F)CC1 [Example 122, 4-[4-cyano-6-[1-[2-(1-hydroxycyclobutyl)ethyl]pyrazol-4-yl]-2-methylindazol-3-yl]-2-(difluoromethoxy)-N-[(1-fluorocyclopropyl)methyl]-6-methoxybenzamide]
8.36	9.22	8.77	COc1cc(-c2c3c(C#N)cc(-c4cnn(CCC5(O)CCC5)c4)cc3nn2C)cc(OC(F)F)c1C(=O)N[C@@H]1CC1(F)F [Example 123, 4-[4-cyano-6-[1-[2-(1-hydroxycyclobutyl)ethyl]pyrazol-4-yl]-2-methylindazol-3-yl]-N-[(1R)-2,2-difluorocyclopropyl]-2-(difluoromethoxy)-6-methoxybenzamide]
8.10	8.80	8.96	COc1cc(-c2c3c(C#N)cc(-c4cnn(C[C@H](O)C(F)(F)F)c4)cc3nn2C)cc(OC(F)F)c1C(=O)N[C@@H]1CC1(F)F [Example 124, 4-[4-cyano-2-methyl-6-[1-[(2S)-3,3,3-trifluoro-2-hydroxypropyl]pyrazol-4-yl]indazol-3-yl]-N-[(1R)-2,2-difluorocyclopropyl]-2-(difluoromethoxy)-6-methoxybenzamide]
7.94	8.54	8.74	COc1cc(-c2c3c(C#N)cc(-c4cnn(C[C@H](C)O)c4)cc3nn2C)cc(OC(F)F)c1C(N)=O [Example 125, 4-[4-cyano-6-[1-[(2S)-2-hydroxypropyl]pyrazol-4-yl]-2-methylindazol-3-yl]-2-(difluoromethoxy)-6-methoxybenzamide]
8.29	8.18	9.05	COc1cc(-c2c3c(C#N)cc(-c4cnn(C)c4)cc3nn2C)cc2c1C(=O)NCC2(C)C [Example 129, 3-(8-methoxy-4,4-dimethyl-1-oxo-2,3-dihydroisoquinolin-6-yl)-2-methyl-6-(1-methylpyrazol-4-yl)indazol-4-carbonitrile]
7.77	7.77	8.68	COc1cc(-c2c3c(OC)cc(-c4cnn(C)c4)cc3nn2C)cc(OC(F)F)c1C(N)=O [Example 130, 2-(difluoromethoxy)-6-methoxy-4-[4-methoxy-2-methyl-6-(1-methylpyrazol-4-yl)indazol-3-yl]benzamide]
7.91	7.79	8.35	COc1cc(-c2c3c(OC(F)F)cc(-c4cnn(C)c4)cc3nn2C)cc(OC(F)F)c1C(N)=O [Example 131, 2-(difluoromethoxy)-4-[4-(difluoromethoxy)-2-methyl-6-(1-methylpyrazol-4-yl)indazol-3-yl]-6-methoxybenzamide]
7.79	8.24	8.40	COc1cc(-c2c3c(C#N)cc(-c4cnn(C(C)C)c4)cc3nn2C)cc(OC(F)F)c1C(N)=O [Example 132, 4-[4-cyano-2-methyl-6-(1-propan-2-ylpyrazol-4-yl)indazol-3-yl]-2-(difluoromethoxy)-6-methoxybenzamide]
7.87	8.31	8.68	COCCn1cc(-c2cc(C#N)c3c(-c4cc(OC)c(C(N)=O)c(OC(F)F)c4)n(C)nc3c2)cn1 [Example 133, 4-[4-cyano-6-[1-(2-methoxyethyl)pyrazol-4-yl]-2-methylindazol-3-yl]-2-(difluoromethoxy)-6-methoxybenzamide]
7.87	8.24	8.48	COCCn1cc(-c2cc(C(F)F)c3c(-c4cc(OC)c(C(N)=O)c(OC(F)F)c4)n(C)nc3c2)cn1 [Example 134, 2-(difluoromethoxy)-4-[4-(difluoromethyl)-6-[1-(2-methoxyethyl)pyrazol-4-yl]-2-methylindazol-3-yl]-6-methoxybenzamide]
7.76	8.23	8.21	COc1cc(-c2c3c(C#N)cc(-c4cnn(CC(C)C)c4)cc3nn2C)cc(OC(F)F)c1C(N)=O [Example 135, 4-[4-cyano-2-methyl-6-[1-(2-methylpropyl)pyrazol-4-yl]indazol-3-yl]-2-(difluoromethoxy)-6-methoxybenzamide]
8.12	7.87	8.47	CCOc1cc(-c2cnn(C)c2)cc2nn(C)c(-c3cc(OC)c(C(N)=O)c(OC(F)F)c3)c12 [Example 136, 2-(difluoromethoxy)-4-[4-ethoxy-2-methyl-6-(1-methylpyrazol-4-yl)indazol-3-yl]-6-methoxybenzamide]
7.94	8.33	8.24	COc1cc(-c2c3c(C#N)cc(-c4cnn(CCC5(O)CCC5)c4)cc3nn2C)cc(OC(F)F)c1C(N)=O [Example 137, 4-[4-cyano-6-[1-[2-(1-hydroxycyclobutyl)ethyl]pyrazol-4-yl]-2-methylindazol-3-yl]-2-(difluoromethoxy)-6-methoxybenzamide]
7.77	8.18	8.14	COc1cc(-c2c3c(C#N)cc(-c4cnn(CC5CC5)c4)cc3nn2C)cc(OC(F)F)c1C(N)=O [Example 138, 4-[4-cyano-6-[1-(cyclopropylmethyl)pyrazol-4-yl]-2-methylindazol-3-yl]-2-(difluoromethoxy)-6-methoxybenzamide]
8.05	7.89	8.07	CCn1cc(-c2cc(C#N)c3c(-c4cc(OC)c5c(c4)C(C)(C)CNC5=O)n(C)nc3c2)cn1 [Example 139, 6-(1-ethylpyrazol-4-yl)-3-(8-methoxy-4,4-dimethyl-1-oxo-2,3-dihydroisoquinolin-6-yl)-2-methylindazole-4-carbonitrile]
8.11	7.99	7.91	CCCn1cc(-c2cc(C#N)c3c(-c4cc(OC)c5c(c4)C(C)(C)CNC5=O)n(C)nc3c2)cn1 [Example 140, 3-(8-methoxy-4,4-dimethyl-1-oxo-2,3-dihydroisoquinolin-6-yl)-2-methyl-6-(1-propylpyrazol-4-yl)indazol-4-carbonitrile]
7.75	8.57	8.70	CCn1cc(-c2cc(C#N)c3c(-c4cc(OC)c(C(N)=O)c(OC(F)F)c4)n(C)nc3c2)cn1 [Example 141, 4-[4-cyano-6-(1-ethylpyrazol-4-yl)-2-methylindazol-3-yl]-2-(difluoromethoxy)-6-methoxybenzamide]
7.79	8.57	8.72	COc1cc(-c2c3c(C#N)cc(-c4cnn(CCC(C)(C)O)c4)cc3nn2C)cc(OC(F)F)c1C(N)=O [Example 142]
7.98	8.07	8.66	COCCn1cc(-c2cc(C#N)c3c(-c4cc(OC)c5c(c4)C(C)(C)CNC5=O)n(C)nc3c2)cn1 [Example 143, 3-(8-methoxy-4,4-dimethyl-1-oxo-2,3-dihydroisoquinolin-6-yl)-6-[1-(2-methoxyethyl)pyrazol-4-yl]-2-methylindazole-4-carbonitrile]
8.00	8.11	8.43	COc1cc(-c2c3c(C#N)cc(-c4cnn(C[C@H](C)O)c4)cc3nn2C)cc2c1C(=O)NCC2(C)C [Example 144, 6-[1-[(2S)-2-hydroxypropyl]pyrazol-4-yl]-3-(8-methoxy-4,4-dimethyl-1-oxo-2,3-dihydroisoquinolin-6-yl)-2-methylindazole-4-carbonitrile]
7.99	7.72	8.74	COc1cc(-c2c3c(OCCO)cc(-c4cnn(C)c4)cc3nn2C)cc(OC(F)F)c1C(N)=O [Example 145, 2-(difluoromethoxy)-4-[4-(2-hydroxyethoxy)-2-methyl-6-(1-methylpyrazol-4-yl)indazol-3-yl]-6-methoxybenzamide]
7.90	8.11	8.44	COc1cc(-c2c3c(C#N)cc(-c4cnn(CC(F)(F)F)c4)cc3nn2C)cc2c1C(=O)NCC2(C)C [Example 146, 3-(8-methoxy-4,4-dimethyl-1-oxo-2,3-dihydroisoquinolin-6-yl)-2-methyl-6-[1-(2,2,2-trifluoroethyl)pyrazol-4-yl]indazole-4-carbonitrile]
8.20	7.87	8.49	COc1cc(-c2c3c(C#N)cc(-c4cn[nH]c4)cc3nn2C)cc2c1C(=O)NCC2(C)C [Example 147, 3-(8-methoxy-4,4-dimethyl-1-oxo-2,3-dihydroisoquinolin-6-yl)-2-methyl-6-(1H-pyrazol-4-yl)indazol-4-carbonitrile]
8.22	8.96	8.89	COc1cc(-c2c3c(C#N)cc(-c4cn[nH]c4)cc3nn2C)cc(OC(F)F)c1C(=O)N[C@@H]1CC1(F)F [Example 148, 4-[4-cyano-2-methyl-6-(1H-pyrazol-4-yl)indazol-3-yl]-N-[(1R)-2,2-difluorocyclopropyl]-2-(difluoromethoxy)-6-methoxybenzamide]
